According to ChEMBL document CHEMBL6115010, “Targeting glioma with heteroaromatic alkaloids: A review of potential therapeutics” (Bioorg Med Chem, 2025):
Values after ≈ are worked out from the molar mass of the structure shown.

Experiments:
SF-268 [1] = test: Antiproliferative activity against human SF-268 cells; format: functional, cell-based
SF-268 [2] = test: Cytotoxicity against human SF-268 cells assessed as reduction in cell viability incubated for 72 hrs by SRB assay; format: functional, cell-based; settings: SF-268, 72 h
GAMG = test: Antiproliferative activity against human GAMG cells assessed as reduction in cell viability incubated for 48 hrs by MTS reagent based assay; format: functional
U-251 [3] = test: Cytotoxicity against human U-251MG cells assessed as reduction in cell viability incubated for 48 hrs by MTT assay; format: functional, cell-based; settings: U-251, 48 h
[4] = Cytotoxicity against human U373 MG cells assessed as reduction in cell growth incubated for 24 hrs by MTT colorimetric assay; format: functional, cell-based, U-373MG ATCC
SW1088 = test: Cytotoxicity against human SW1088 cells assessed as reduction in cell growth incubated for 24 hrs by MTT colorimetric assay; format: functional, cell-based; settings: SW1088, 24 h
[5] = Toxicity in ip dosed B6D2F1 mouse assessed as maximum tolerated dose measured after 28 days; format: organism-based; settings: in vivo, time 28 day
U-251 [6] = test: Cytotoxicity against human U-251MG cells assessed as reduction in cell viability incubated for 24 hrs by MTT assay; format: functional, cell-based; settings: U-251, 24 h
[7] = Cytotoxicity against human SHG-44 cells assessed as reduction in cell viability incubated for 24 hrs by MTT assay; format: functional, cell-based; settings: SHG-44, 24 h
[8] = Cytotoxicity against human CHG-5 cells assessed as reduction in cell viability incubated for 24 hrs by MTT assay; format: functional, cell-based; settings: CHG-5, 24 h
CCF-STTG1 [9] = test: Cytotoxicity against human CCF-STTG1 cells assessed as reduction in cell viability incubated for 24 hrs by MTT assay; format: functional, cell-based; settings: CCF-STTG1, 24 h
[10] = Cytotoxicity against rat ASK cells assessed as reduction in cell growth by SRB assay; format: functional; settings: read-out: ED50 (the source's name)
[11] = Cytotoxicity against human CHG-5 cells assessed as reduction in cell viability incubated for 48 hrs by MTT assay; format: functional, cell-based; settings: CHG-5, 48 h
[12] = Cytotoxicity against human SHG-44 cells assessed as reduction in cell viability incubated for 48 hrs by MTT assay; format: functional, cell-based; settings: SHG-44, 48 h
CCF-STTG1 [13] = test: Cytotoxicity against human CCF-STTG1 cells assessed as reduction in cell viability incubated for 48 hrs by MTT assay; format: functional, cell-based; settings: CCF-STTG1, 48 h
H4 = test: Antiproliferative activity against human H4 cells assessed as reduction in cell viability incubated for 72 hrs by Prestoblue-reagent based assay; format: functional; settings: H4, 72 h
U-87 MG [14] = test: Antiproliferative activity against human U-87 MG cells assessed as reduction in cell viability at 100 uM incubated for 72 hrs by Prestoblue-reagent based assay relative to control; format: functional, U-87MG ATCC
CCF-STTG1 [15] = test: Cytotoxicity against human CCF-STTG1 cells assessed as reduction in cell growth incubated for 24 hrs by MTT assay; format: functional, cell-based; settings: CCF-STTG1, 24 h
[16] = Cytotoxicity against human U-343MG cells assessed as reduction in cell growth incubated for 48 hrs by MTT assay; format: functional, cell-based
U-251 [17] = test: Cytotoxicity against human U-251MG cells assessed as reduction in cell growth incubated for 48 hrs by MTT assay; format: functional, cell-based; settings: U-251, 48 h
SH-SY5Y [18] = test: Cytotoxicity against human SH-SY5Y cells assessed as reduction in cell growth incubated for 48 hrs by MTT assay; format: functional, cell-based
[19] = Cytotoxicity against human CHG-5 cells assessed as reduction in cell growth incubated for 48 hrs by MTT assay; format: functional, cell-based; settings: CHG-5, 48 h
[20] = Cytotoxicity against human GL15 cells assessed as reduction in cell growth incubated for 48 hrs by MTT assay; format: functional, cell-based; settings: GL15, 48 h
[21] = Cytotoxicity against human SHG-44 cells assessed as reduction in cell growth incubated for 48 hrs by MTT assay; format: functional, cell-based; settings: SHG-44, 48 h
SH-SY5Y [22] = test: Cytotoxicity against human SH-SY5Y cells; format: functional, cell-based
[23] = Cytotoxicity against human U87MG.deltaEGFR cells by resazurin dye based assay; format: functional, cell-based
U-87 MG [24] = test: Cytotoxicity against human U-87 MG cells by resazurin dye based assay; format: functional, cell-based, U-87MG ATCC
[25] = Cytotoxicity against human CHG-5 cells assessed as reduction in cell growth incubated for 24 hrs by MTT assay; format: functional, cell-based; settings: CHG-5, 24 h
[26] = Cytotoxicity against human SHG-44 cells assessed as reduction in cell growth incubated for 24 hrs by MTT assay; format: functional, cell-based; settings: SHG-44, 24 h

Compound `C[C@@H]1CC[C@H]2C(C)(C)[C@H](O)CC[C@]2(C)[C@@]12Cc1c(O)cc3c(c1O2)CNC3=O` has an IC50 (SF-268 [1]) of 67.2 µM.

Work on `C/C=C(\C)[C@H](O)[C@H](C)/C=C(C)/C=C/C/C(C)=C/Cc1nc(OC)c(OC)c(O)c1C` [PIERICIDIN A] yielded an IC50 (SF-268 [2]) of 68.1 µM.

In the case of `CC[C@]1(O)C[C@H]2CN(CCc3c([nH]c4ccccc34)[C@@](C(=O)OC)(c3cc4c(cc3OC)N(C=O)[C@H]3[C@@](O)(C(=O)OC)[C@H](OC(C)=O)[C@]5(CC)C=CCN6CC[C@]43[C@@H]65)C2)C1` [VINCRISTINE], the IC50 (GAMG) is reported as 30.4 µM.

Work on `[O-][N+]12CCc3cc(O)c(O)c(c31)-c1cc3c(cc1C2)OCO3` (single isomer, unassigned; (+)) yielded an IC50 (U-251 [3]) of 93.7 µM.

Compound `O=C1c2c(O)ccnc2-c2nccc3c2c1nc1ccccc13` has an IC50 [4] of 6 µM, an IC50 (SW1088) of 6 µM and an MTD at 672 h [5] of over 160 mg/kg.

`O=C1c2cccnc2-c2nccc3c2c1nc1cc(Br)ccc13` showed an IC50 [4] of 0.6 µM, an IC50 (SW1088) of 0.4 µM and an MTD at 672 h [5] of 20 mg/kg.

Work on `CC/C=C(\C)[C@H](O)[C@H](C)/C=C(C)/C=C(\C)C/C(C)=C/Cc1nc(OC)c(OC)c(O)c1C` yielded an IC50 (SF-268 [2]) of 45.9 µM.

In the case of `C/C=C1\C2C[C@H]3C4=Nc5ccccc5[C@]45C[C@@H](C2[C@H]5OC(C)=O)[N+]3([O-])[C@H]1C` (stereo not given in full), the IC50 (U-251 [6]) is reported as 14.9 µM, the IC50 [7] is reported as 17.4 µM and the IC50 [8] is reported as 15.8 µM. It also gave an IC50 (CCF-STTG1 [9]) of 16.7 µM.

With `COc1c(OC)c(OC)c2c3c(cc4ccccc42)NC(=O)c13` [PIPEROLACTAM C] the EC50 [10] was 12.8 µg/mL (≈ 41.3 µM).

`O[C@H]1[C@H]2c3cc4c(cc3C=[N+]3CCC(=C[C@@H]1O)[C@H]23)OCO4` showed an IC50 [11] of 10.2 µM, an IC50 [12] of 9.4 µM and an IC50 (U-251 [3]) of 11.8 µM. It also gave an IC50 (CCF-STTG1 [13]) of 10.3 µM.

`COc1ccc2c3c([nH]c2c1)C(C)=NCC3` [HARMALINE] gave an IC50 (H4) of 19.6 µM and an inhibition at 100 µM (U-87 MG [14]) of 14%.

With `C[C@@H]1CC[C@H]2C(C)(C)[C@H](O)CC[C@]2(C)[C@@]12Cc1c(O)cc3c(c1O2)C(=O)NC3=O` the IC50 (SF-268 [1]) was 43.3 µM.

For `COC(=O)C1=CO[C@@H](C)[C@@H]2CN3CC[C@]4(C(=O)Nc5ccccc54)[C@@H]3C[C@H]12`, the IC50 (GAMG) was 20.1 µM.

In the case of `COc1cc2c(cc1O)C(=O)O[C@@H]1CC=C3CC[N+](C)([O-])[C@H]3[C@H]21` (stereo not given in full), the IC50 (CCF-STTG1 [15]) is reported as 93 µM.

`CO[C@@H]1C=C[C@@]23c4cc5c(cc4CN(CCc4ccc(O)cc4)[C@@H]2CN(C)[C@H]3C1)OCO5` showed an IC50 [16] of 43.2 µM, an IC50 (U-251 [17]) of 46.6 µM and an IC50 (SH-SY5Y [18]) of 53.7 µM. It also gave an IC50 [19] of 41.8 µM, an IC50 [20] of 39.8 µM and an IC50 [21] of 43.7 µM.

Compound `Cc1cc2[nH]c(=O)c(=O)n(CC(O)C(O)C(O)CO)c2cc1C` (stereo not given) has an IC50 (SH-SY5Y [22]) of 71.2 µM.

For `C[C@@H]1CC[C@H]2C(C)(C)[C@H](O)CC[C@]2(C)[C@@]12Cc1c(O)cc3c(c1O2)C(=O)NC3`, the IC50 (SF-268 [1]) was 11.2 µM.

Compound `COc1cc2c(cc1O)C(=O)O[C@H]1[C@@H]2[C@H]2C(=C[C@@H]1O)CC[N+]2(C)[O-]` (stereo not given in full) has an IC50 (CCF-STTG1 [15]) of 83.2 µM.

`COc1cc(OC)c2c(=O)c3ccccc3n(C)c2c1` gave an IC50 [23] of 8.88 µM and an IC50 (U-87 MG [24]) of 17.6 µM.

With `CO[C@H]1C=C[C@]23c4cc5c(cc4[C@H](OC(C)=O)N(C[C@H]2O)[C@@H]3C1)OCO5` the IC50 [11] was 30 µM, the IC50 [12] was 28.3 µM and the IC50 (U-251 [3]) was 15.8 µM. It also gave an IC50 (CCF-STTG1 [13]) of 27.1 µM.

With `COc1c2c(cc3[nH]c4ccccc4c(=O)c13)OCO2` the IC50 [23] was 5.72 µM and the IC50 (U-87 MG [24]) was 89.3 µM.

Compound `CC(=O)O[C@H]1c2cc3c(cc2[C@]24C=C[C@H](O)C[C@H]2N1C[C@H]4O)OCO3` has an IC50 [11] of 29.4 µM, an IC50 [12] of 28.3 µM and an IC50 (U-251 [3]) of 15.8 µM. The IC50 (CCF-STTG1 [13]) was 29.4 µM.

Compound `COc1ccc2c(c1OC)-c1c(OC)c(O)cc3c1[C@H](C2)[N@+](C)([O-])CC3` has an IC50 [25] of 83.7 µM, an IC50 (CCF-STTG1 [15]) of 81.8 µM and an IC50 [26] of 83.7 µM.

With `COc1cc(OC)c2c(c1)C(=O)c1nccc3cc4c(c-2c13)OCO4` [OXODISCOGUATTINE] the EC50 [10] was 2.11 µg/mL (≈ 6.29 µM).

With `c1ccc2c(c1)[nH]c1cnccc12` [NORHARMANE] the IC50 (H4) was 49 µM.

Compound `O=C1c2cccnc2-c2nccc3c2c1nc1ccccc13` [ASCIDIDEMIN] has an IC50 [4] of 0.5 µM, an IC50 (SW1088) of 0.6 µM and an MTD at 672 h [5] of 40 mg/kg.

In the case of `N#Cc1cnc2cccc(O)c2c1O`, the IC50 (SH-SY5Y [22]) is reported as 62.6 µM.
